{
  "source": "patent US7683055B2",
  "about": "“Lanthionine-related compounds for the treatment of inflammatory diseases” (Oklahoma Medical Research Foundation, priority 2006, dated 2010)",
  "key": {"EOC-20 microglia": {"tested_on": "EOC-20 microglia", "test": "TNFα-stimulated nitrite production in EOC-20 microglia (Griess assay)", "format": "cell-based, mouse", "procedure": "Mouse EOC-20 microglia (American Tissue Type Collection, Gaithersville Md. USA) (Hensley et al., 2003; Walker et al., 1995) were grown in DMEM containing 20% L929 fibroblast-supplemented medium. Nitrite production by cytokine stimulated microglia was measured in cell culture medium using the Griess diazotization reaction as previously reported (Hensley et al., 2003; West et al., 2004).\nThe efficacy of (R)-LKE1 and (R)-LK as inhibitors of microglial cell activation in response to pro-inflammatory cytokines is shown in FIGS. 1A & 1B. EOC-20 murine microglial cells were pretreated 30 minutes with test compounds (e.g. (R)-LK or (R)-LKE1) dissolved in DMSO and diluted 1:200 into cell culture medium; or with DMSO vehicle only. Cells were then challenged with cytokine and allowed to incubate undisturbed in the cell culture incubator for 24 h prior to Griess assay. The lanthionine ketimine ester in this case is the structure shown above as (R)-LKE1. After drug treatment cells were then stimulated with 40 ng/mL recombinant murine tumor necrosis factor alpha (TNF α) plus 50U/mL interferon gamma (IFNγ). Nitrite (NO2^−) was measured in the cell culture medium 24 hours later, as an index of nitric oxide production. Cell viability was then assayed in the same cultures using a commercially available tetrazolium reduction assay (Promega OneStep™; Promega, Gaithersburg Md.). Cell culture methods were those published by the inventor (Hensley et al., 2003; West et al., 2004).\nIn a EOC-20 microglial assay the cells were stimulated with TNFα in the presence or absence of 100 microM (R)- or (S)-LK, and nitrite was measured 24 h later, the net suppression of nitrite was 13% by (S)-LK and 15% by (R)-LK.\nThe reduced lanthionine ketimine (i.e., TMDCA) was also tested against TNFα-stimulated nitrite production in the EOC-20 screen."}, "HT4 cells": {"tested_on": "HT4 cells", "test": "glutamate toxicity in HT4 cells (LDH leakage)", "format": "cell-based", "procedure": "(§1) FIG. 13. (R)-LK protects HT4 cells against excitotoxicity. Determination of cell viability: HT4 cells were seeded in 6 well plates (1×10^7 cell/well). After 24 h, cell media was changed and (R)-LK (in DMSO) was used for 1 h prior to glutamate challenge. Powdered (R)-LK was dissolved in DMSO just before use. The viability of cells in culture was assessed by measuring the leakage of lactate dehydrogenase (LDH) from cells to media 18-24 h following glutamate treatment using the in vitro toxicology assay kit from Sigma Chemical Co. (St. Louis, Mo., USA). LDH leakage was determined using the following equation: % of total LDH leaked=(LDH activity in the cell culture media/total LDH activity) where total LDH activity=LDH activity in cell monolayer+LDH activity of detached cells+LDH activity in the cell culture media.\nas §1, with “14. (R)-LKE1” for “13. (R)-LK”, “Determination of cell viability: HT4 cells were seeded in 6 well plates (1×10^7 cell/well). After 24 h, cell media was changed and (R)-LK (in DMSO) was used for 1 h prior to glutamate challenge. Powdered (R)-LK was dissolved in DMSO just before use.” left out, “media. […]” for “media.”"}, "G93A-SOD1 mice": {"tested_on": "G93A-SOD1 mice", "test": "G93A-SOD1 mouse model of ALS (rotarod, weight)", "format": "in vivo", "details": "100 mg/kg i.p. 5 days/week from day 90", "source_text": "Transgenic mice. Mice expressing high copy numbers of human mutant G93A-SOD1 (SOD1^G93A mice) were obtained from Jackson Laboratories [Bar Harbor Me. USA; strain designation B6SJL-TgN-(SOD1 G93A)-1-Gur] (Hensley et al., 2002; Hensley et al., 2003; West et al., 2004; Hensley et al., 2006). Transgenic mice were maintained in the hemizygous state by mating SOD1^G93A males with B6SJL-TGN females. Animals were housed in the Oklahoma Medical Research Foundation Laboratory Animal Resource Center.\nMice were trained to a rotarod task at 80 d of age. In this task mice were placed on a horizontal rod that rotates with acceleration at 10 rpm from rest (Hensley et al., 2002; Hensley et al., 2003; West et al., 2004). The time was recorded at which each mouse fell from the rotarod and the test was repeated four times on each trial date. The closest three performance times were averaged for each mouse on each day. For experimental drug treatments mice were injected with LKE at 100 mg/kg/day i.p. Monday-Friday beginning at 90 d. Control animals received saline vehicle. Rotarod performance and weights were recorded at 10 day intervals until death. Animals were euthanized when unable to right themselves within 10 seconds of being placed on their side, or when unable to perform the rotarod task."}, "[1]": {"tested_on": "mice treated with E. coli LPS 0127:B8", "test": "LPS sepsis mouse model, viability", "format": "in vivo", "details": "for Dead/alive: 40 mg/kg LPS + 100 mg/kg i.p. daily", "procedure": "Six mice were treated with 40 mg/kg E. coli LPS 0127:B8 and co-treated with 100 mg/kg (R)-LKE1 i.p., daily. Viability was compared to a control group, receiving only LPS."}},
  "data": [
    {"compound": "CCOC(=O)[C@@H]1CSCC(C(=O)O)=N1", "note": "[(R)-LKE1]", "values": [
      {"measurement": "potency at suppressing cytokine activation relative to unesterified lanthionine ketimine", "setting": "EOC-20 microglia; FIG. 1A", "value": "statistically significantly more potent"},
      {"measurement": "inhibition of nitrite production", "setting": "EOC-20 microglia; TNFα-stimulated EOC-20 microglia", "value": "inhibited nitrite production"},
      {"measurement": "glutamate toxicity (LDH release)", "setting": "HT4 cells", "value": "significantly diminished glutamate toxicity"},
      {"measurement": "rotarod performance", "setting": "G93A-SOD1 mice", "value": "improved"},
      {"measurement": "weight loss", "setting": "G93A-SOD1 mice", "value": "inhibited weight loss"},
      {"measurement": "Dead/alive", "setting": "[1]; 0 h", "value": "0/6"},
      {"measurement": "Dead/alive", "setting": "[1]; 18 h", "value": "2/4"},
      {"measurement": "Dead/alive", "setting": "[1]; 36 h", "value": "3/3"},
      {"measurement": "Dead/alive", "setting": "[1]; 48 h", "value": "4/2"},
      {"measurement": "Dead/alive", "setting": "[1]; 72 h", "value": "4/2"},
      {"measurement": "chance of surviving the LPS model conditions", "setting": "[1]; co-treated", "value": "higher chance of surviving"}
    ]}
  ]
}
